Results taken from patent US12377049B2, “Fulvestrant pharmaceutical composition, preparation method therefor, and application thereof” (SHANGHAI BOCIMED PHARMACEUTICAL CO., LTD., priority 2019, dated 2025).

Experiments:
[1] = background statement; cited from earlier work
[2] = Stability test on the fulvestrant suspensions of Examples 1-3: related substances (EP10.0 method); type: physicochemical; conditions: starting material
Method: The fulvestrant suspensions prepared in Examples 1 and 2 were stored in a refrigerator at 4° C. for 14 days or 10 days, and tested for related substances.
The fulvestrant suspension prepared in Example 3 was placed at −20° C., 4° C., 25° C., 40° C. or 60° C., and tested for related substances, the morphology, particle size distribution and crystalline form changes of the fulvestrant solid particles. The test for the related substances was performed according to the EP10.0 method.

[3] = background statement; cited from earlier work; remark: listed apart in the source

C[C@]12CC[C@@H]3c4ccc(O)cc4C[C@@H](CCCCCCCCC[S+]([O-])CCCC(F)(F)C(F)(F)F)[C@H]3[C@@H]1CC[C@@H]2O (some centres unmarked) [Fulvestrant, 7-(9-(4,4,5,5,5-pentafluoropentylsulfinyl)nonyl)estra-1,3,5(10)-triene-3,17-diol]
water solubility [1]: very low
Main peak, peak area [2]: 99.84%
RRT 0.51, peak area [2]: 0.01%
RRT 0.88, peak area [2]: 0.05%
RRT 1.19, peak area [2]: 0.04%
RRT 2.92, peak area [2]: 0.03%
Total impurities, peak area [2]: 0.05%
oral bioavailability [3]: low
